Test [1] concerns panel of 442 kinases. Put plainly: kinase selectivity panel of 442 kinases. The following applies: 10 μM, 386 nonmutant. The class given is binding.
The target of test [2] is MEK1 (Homo sapiens, UniProt Q02750). Put plainly: dissociation constant against MEK1. It is filed as binding. The following applies: read-out: Kd MEK1.
In test [3] the target is EGFR (Homo sapiens, UniProt P00533). Put plainly: dissociation constant against EGFR. The following applies: read-out: Kd EGFR. The class given is binding.
In test [4] the test system is iron-mediated neuronal damage. The following applies: likely by reduced phosphorylation of hemeoxygenase by ERK; cited from earlier work.

Chain of EGFR (P00533 25-1210): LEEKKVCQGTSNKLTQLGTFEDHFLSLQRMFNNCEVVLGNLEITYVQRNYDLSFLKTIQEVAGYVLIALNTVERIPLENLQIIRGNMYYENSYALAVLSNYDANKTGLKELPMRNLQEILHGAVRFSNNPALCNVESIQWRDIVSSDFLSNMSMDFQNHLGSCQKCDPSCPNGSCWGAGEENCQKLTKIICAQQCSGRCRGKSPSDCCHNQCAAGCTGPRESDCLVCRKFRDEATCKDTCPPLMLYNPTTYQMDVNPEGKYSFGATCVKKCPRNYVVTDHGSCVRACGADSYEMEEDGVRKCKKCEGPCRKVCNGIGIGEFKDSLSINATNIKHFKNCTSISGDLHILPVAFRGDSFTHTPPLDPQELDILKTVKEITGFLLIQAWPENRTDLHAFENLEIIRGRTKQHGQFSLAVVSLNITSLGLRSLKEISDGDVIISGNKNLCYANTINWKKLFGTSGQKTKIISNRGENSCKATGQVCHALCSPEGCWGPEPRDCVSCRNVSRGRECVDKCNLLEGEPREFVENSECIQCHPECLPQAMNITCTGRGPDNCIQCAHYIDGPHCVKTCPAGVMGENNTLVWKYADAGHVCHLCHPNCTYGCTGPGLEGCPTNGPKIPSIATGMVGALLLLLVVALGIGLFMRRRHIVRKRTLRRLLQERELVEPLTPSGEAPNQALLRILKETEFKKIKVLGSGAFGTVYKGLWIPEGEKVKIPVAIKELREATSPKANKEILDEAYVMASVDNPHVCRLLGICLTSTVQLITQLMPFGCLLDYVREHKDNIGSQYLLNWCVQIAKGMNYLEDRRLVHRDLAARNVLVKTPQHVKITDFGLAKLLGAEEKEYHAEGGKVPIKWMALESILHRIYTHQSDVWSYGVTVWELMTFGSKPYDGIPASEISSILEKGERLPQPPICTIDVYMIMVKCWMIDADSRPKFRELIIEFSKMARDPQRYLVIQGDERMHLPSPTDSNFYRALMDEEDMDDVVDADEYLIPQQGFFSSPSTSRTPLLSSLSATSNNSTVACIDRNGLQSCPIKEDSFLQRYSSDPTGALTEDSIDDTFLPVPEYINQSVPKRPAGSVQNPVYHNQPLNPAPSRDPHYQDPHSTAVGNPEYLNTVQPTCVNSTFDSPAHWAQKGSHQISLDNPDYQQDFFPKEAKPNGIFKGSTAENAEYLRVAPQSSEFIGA
Chain of MEK1 (Q02750 whole entry): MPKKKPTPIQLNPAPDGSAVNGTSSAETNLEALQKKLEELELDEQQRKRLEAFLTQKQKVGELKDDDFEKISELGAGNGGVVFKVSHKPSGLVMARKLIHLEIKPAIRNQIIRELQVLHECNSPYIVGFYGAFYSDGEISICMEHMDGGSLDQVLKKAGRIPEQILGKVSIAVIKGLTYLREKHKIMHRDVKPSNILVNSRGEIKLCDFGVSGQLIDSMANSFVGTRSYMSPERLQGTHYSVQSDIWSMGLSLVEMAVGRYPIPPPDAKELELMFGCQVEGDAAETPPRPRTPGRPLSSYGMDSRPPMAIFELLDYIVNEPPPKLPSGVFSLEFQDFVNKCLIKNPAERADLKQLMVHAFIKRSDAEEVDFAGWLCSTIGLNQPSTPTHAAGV

As for `Nc1[nH]nc2nnc(-c3c(-c4ccccc4)nn4ccccc34)cc12` [FR180204], in test [1], the “number of nonmutant kinases with >90% inhibition of kinase activity” value is 29/386. Also, the “number of nonmutant kinases with >99% inhibition of kinase activity” value in test [1] is 12 out of 386. Besides, the dissociation constant (Kd) in test [2] stood at 8.7 µM; in test [3], 1.2 µM. The “effect on iron-mediated neuronal damage caused by hemoglobin breakdown” value in test [4] is “can reduce iron-mediated neuronal damage”.

The record behind these values is publication PMC2862695 (The Journal of organic chemistry, 2009).
